According to patent US3966739A, “Pyrrole-carboxylic acids lumilysergol esters” (Societa' Farmaceutici Italia S.p.A., priority 1971, dated 1976):
≈ marks a conversion by molar mass, not a printed value. Counter-ions that a name gives are not always drawn. Like-named read-outs stand apart in the source and are kept apart here.

What was measured:
[1] = tested on: spasmogen action of adrenaline on isolated seminal small bladder; experiment: adrenolytic activity on isolated seminal small bladder of guinea-pig (inhibition of spasmogen action of adrenaline); format: cell-based; conditions: Cavia porcellus; isolated seminal small bladder of guinea-pig suspended in physiologic solution; read-out: concentrations inhibiting 50% of the spasmogen action of adrenaline (IC50)
Text: The adrenolytic activity of the compounds of the invention has been tested by employing dihydroergotamine as a comparison compound. Particularly, it has been determined on the isolated seminal small bladder of guinea-pig suspended in physiologic solution.
Table I reports the concentrations inhibiting 50% of the spasmogen action of adrenaline (IC50).

[2] = tested on: lethal effects of adrenaline; experiment: adrenolytic activity in vivo in the rat (reduction of lethal effects of adrenaline)
Text: The same activity, in vivo, has been determined in the rat. Table II reports the doses ID50 (in mg/kg) capable of reducing 50% of the lethal effects of adrenaline by intravenous administration (i.v.) and oral administration (os) of the compounds under examination.

[3] = intravenous administration (i.v.), read-out: ID50 (i.v.): dose reducing 50% of the lethal effects of adrenaline
[4] = oral administration (os), read-out: ID50 (os): dose reducing 50% of the lethal effects of adrenaline

Compound | IC50 [1] [mg/L] | ED50 [2, 3] [mg/kg] | ED50 [2, 4] [mg/kg]
CO[C@]12C[C@@H](COC(=O)c3ccc[nH]3)CN(C)[C@@H]1Cc1cn(C)c3cccc2c13 [1,6-Dimethyl-8β-(2'-pyrroyloxymethyl)-10α-methoxyergoline] | 0.005 (≈ 0.0127 µM) | 0.005 | 0.5
CO[C@]12C[C@@H](COC(=O)c3[nH]c(C)cc3C)CN(C)[C@@H]1Cc1cn(C)c3cccc2c13 [1,6-Dimethyl-8β-(3',5'-dimethyl-2'-pyrroyloxymethyl)-10α-methoxyergoline] | 0.05 (≈ 0.119 µM) | 0.065 | 0.1
CO[C@]12C[C@@H](COC(=O)c3cc[nH]c3)CN(C)[C@@H]1Cc1cn(C)c3cccc2c13 [1,6-Dimethyl-8β-(3'-pyrroyloxymethyl)-10α-methoxyergoline] | 0.005 (≈ 0.0127 µM) | 0.05 | 0.5
CO[C@]12C[C@@H](COC(=O)c3c(C)cc(C)n3C)CN(C)[C@@H]1Cc1cn(C)c3cccc2c13 [1,6-Dimethyl-8β-[1', 3',5'-trimethyl-2'-pyrroyloxymethyl]-10α-methoxyergoline maleate] | 0.01 | 0.25 | 0.2
CO[C@]12C[C@@H](COC(=O)c3c(C)c[nH]c3C)CN(C)[C@@H]1Cc1cn(C)c3cccc2c13 [1,6-Dimethyl-8β-[2', 4'-dimethyl-3'-pyrroyloxymethyl]-10α-methoxyergoline] | 0.07 (≈ 0.166 µM) | 0.1 | 0.7
CO[C@]12C[C@@H](COC(=O)c3cc[nH]c3C)CN(C)[C@@H]1Cc1cn(C)c3cccc2c13 [1,6-Dimethyl-8β-[2'-methyl-3'-pyrroyloxymethyl]-10α-methoxyergoline] | 0.05 (≈ 0.123 µM) | 0.05 | 0.25
CO[C@]12C[C@@H](COC(=O)c3[nH]c(C)c(Br)c3C)CN(C)[C@@H]1Cc1cn(C)c3cccc2c13 [1,6-Dimethyl-8β-[3', 5'-dimethyl-4'-bromo-2'-pyrroyloxymethyl]-10α-methoxyergoline] | 0.1 (≈ 0.2 µM) | > 1 | 0.5
CCOC(=O)c1c(C)[nH]c(C(=O)OC[C@H]2CN(C)[C@@H]3Cc4cn(C)c5cccc(c45)[C@@]3(OC)C2)c1C [1,6-Dimethyl-8β-[3', 5'-dimethyl-4'-carbethoxy-2'-pyrroyloxymethyl]-10α-methoxyergoline] | 1 (≈ 2.03 µM) | > 0.1 | 2.5
COc1c[nH]cc1C(=O)OC[C@H]1CN(C)[C@@H]2Cc3cn(C)c4cccc(c34)[C@@]2(OC)C1 [1,6-Dimethyl-8β-[4'-methoxy-3'-pyrroyloxymethyl]-10α-methoxyergoline] | 0.1 (≈ 0.236 µM) | 0.075 | 0.3
CO[C@]12C[C@@H](COC(=O)c3cccn3C)CN(C)[C@@H]1Cc1cn(C)c3cccc2c13 [1,6-dimethyl-8β-[2'-(N-methyl)-pyrroyloxymethyl]-10α-methoxyergoline] | 0.005 (≈ 0.0123 µM) | 0.025 | 1
CN1C[C@H](C(=O)N[C@]2(C)O[C@@]3(O)[C@@H]4CCCN4C(=O)[C@H](Cc4ccccc4)N3C2=O)C[C@@H]2c3cccc4[nH]cc(c34)C[C@H]21 [Dihydroergotamine, reference compound] | 0.015 (≈ 0.0257 µM) | 0.08 | 15
